pEC50: −log10 of the molar value.
Experiments:
[1] = biological target: Glucagon-like peptide 1 receptor (Homo sapiens, UniProt P43220); assay: Agonist activity at human GLP-1 expressed in HEK293 cells assessed as […] in intracellular cAMP accumulation incubated for 60 mins by HTRF assay; format: functional, cell-based
[2] = biological target: Voltage-gated inwardly rectifying potassium channel KCNH2 (Homo sapiens, UniProt Q12809); assay: Inhibition of hERG potassium channel by patch clamp assay; format: toxicity
Voltage-gated inwardly rectifying potassium channel KCNH2, sequence (Q12809 whole entry): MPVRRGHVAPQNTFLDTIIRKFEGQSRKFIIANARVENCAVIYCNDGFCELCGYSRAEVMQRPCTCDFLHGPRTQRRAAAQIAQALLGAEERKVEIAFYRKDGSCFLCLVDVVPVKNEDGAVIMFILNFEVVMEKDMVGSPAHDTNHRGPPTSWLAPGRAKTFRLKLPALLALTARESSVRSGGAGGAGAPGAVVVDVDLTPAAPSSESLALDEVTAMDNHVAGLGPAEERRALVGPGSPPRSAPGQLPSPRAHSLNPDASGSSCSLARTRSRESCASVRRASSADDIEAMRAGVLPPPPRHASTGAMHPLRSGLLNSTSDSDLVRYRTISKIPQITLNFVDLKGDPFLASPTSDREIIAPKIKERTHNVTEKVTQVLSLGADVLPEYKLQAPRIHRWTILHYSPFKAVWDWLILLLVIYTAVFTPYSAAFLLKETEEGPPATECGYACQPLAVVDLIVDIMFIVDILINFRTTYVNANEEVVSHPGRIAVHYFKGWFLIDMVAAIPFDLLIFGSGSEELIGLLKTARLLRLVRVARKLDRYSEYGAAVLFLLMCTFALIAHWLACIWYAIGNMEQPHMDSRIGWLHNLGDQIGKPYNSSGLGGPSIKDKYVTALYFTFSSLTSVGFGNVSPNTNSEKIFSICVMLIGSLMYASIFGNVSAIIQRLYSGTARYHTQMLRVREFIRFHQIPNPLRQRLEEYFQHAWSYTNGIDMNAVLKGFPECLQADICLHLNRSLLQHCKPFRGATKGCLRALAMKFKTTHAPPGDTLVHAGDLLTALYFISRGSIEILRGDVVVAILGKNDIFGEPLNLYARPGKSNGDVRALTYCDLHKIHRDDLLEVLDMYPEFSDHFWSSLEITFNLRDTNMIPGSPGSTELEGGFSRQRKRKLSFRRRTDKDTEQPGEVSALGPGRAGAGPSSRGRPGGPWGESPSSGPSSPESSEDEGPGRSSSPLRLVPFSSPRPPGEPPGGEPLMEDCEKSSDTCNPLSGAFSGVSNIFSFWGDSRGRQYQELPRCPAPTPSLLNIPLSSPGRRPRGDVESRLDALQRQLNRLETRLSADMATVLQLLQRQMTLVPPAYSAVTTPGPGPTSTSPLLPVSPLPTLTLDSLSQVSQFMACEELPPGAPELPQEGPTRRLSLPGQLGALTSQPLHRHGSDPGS

Glucagon-like peptide 1 receptor, sequence (P43220 whole entry): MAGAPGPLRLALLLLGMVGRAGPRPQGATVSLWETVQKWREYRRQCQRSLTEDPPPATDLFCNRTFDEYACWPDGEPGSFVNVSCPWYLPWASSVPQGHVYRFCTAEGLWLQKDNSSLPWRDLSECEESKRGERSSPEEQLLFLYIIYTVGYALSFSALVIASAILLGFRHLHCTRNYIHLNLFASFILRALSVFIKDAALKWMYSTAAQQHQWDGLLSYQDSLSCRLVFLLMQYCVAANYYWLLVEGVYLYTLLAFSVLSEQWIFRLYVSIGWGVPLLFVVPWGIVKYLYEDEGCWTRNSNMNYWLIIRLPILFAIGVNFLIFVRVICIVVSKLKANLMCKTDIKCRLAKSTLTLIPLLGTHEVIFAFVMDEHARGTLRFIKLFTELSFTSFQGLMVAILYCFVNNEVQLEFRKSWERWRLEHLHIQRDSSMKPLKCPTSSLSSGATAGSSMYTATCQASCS

SMILES | pEC50 [1] | pEC50 [2]
COCCn1ncc2c(F)c(-n3ccn(-c4c5c(nn4-c4cc(C)c(F)c(C)c4)CCN(C(=O)c4cc6cc([C@H]7CCOC(C)(C)C7)ccc6n4[C@@]4(c6noc(=O)[nH]6)C[C@@H]4C)[C@H]5C)c3=O)ccc21 | 8.68 | 
Cn1c(CN2CCC(c3cccc(OCc4ccc(Cl)cc4F)n3)CC2)nc2ccncc21 |  | 7.11
COc1nccc(-c2ccc3c(c2)cc(C(=O)N2CCc4nn(-c5cc(C)c(F)c(C)c5)c(-n5ccn(-c6ccc7c(cnn7C)c6F)c5=O)c4[C@@H]2C)n3[C@@]2(c3noc(=O)[nH]3)C[C@@H]2C)c1C | 8.57 | 

Reference: ChEMBL document CHEMBL5608176, “Binding sites and design strategies for small molecule GLP-1R agonists” (Eur J Med Chem, 2024)
